Experimental data from patent US20170165253A1, “TREATMENT OF SEXUAL DYSFUNCTION AND FOR IMPROVED SEXUAL QUALITY OF LIFE” (ReJoy, priority 2015, published 2017).
Structures can show the parent of a compound that is named as a salt.

What was measured:
[1] = tested on: NAC; test: Acetylcholine receptor agonists: nipple erection and sensitivity (Example 13); type: in vivo, human; conditions: single topical dose to one NAC, one subject per agent; for Onset Time: 0.4-12.5 mg/cm^2
Experimental: A study was conducted to assess the effectiveness of different acetylcholine receptor agonists on eliciting nipple erection and increasing nipple sensitivity in normal women aged 18-65. Ten subjects were recruited. Each subject was randomly assigned a single agonist. Each subject self-administered a single dose of the agonist to one NAC that was self-reported as the least sensitive (or if no differential sensitivity, then the left NAC). The agonists were applied in topical solutions to the NAC. The subject was supervised by a medical professional. Blood pressure and heart rate were monitored at baseline, 5 minutes, 10 minutes, and 30 minutes. […] Subjects were asked to report if they experienced nipple erection and sensitivity in less than 10 minutes and if the effect lasted more or less than 10 minutes. The subjects all responded to the agonists. The effect was short-lived; however, sensitivity is some of the subjects was reported up 60 minutes later.

[2] = tested on: areola; test: Dose study of nipple erection and sensitivity, topical oxymetazoline (Example 7); type: in vivo, human; conditions: 0.5% topical solution
Experimental: Oxymetazoline HCl 0.1%, 0.2%, 0.5%. A study was conducted to assess the dosage of topical oxymetazoline solution required to elicit nipple erection and sensitivity. Five premenopausal subjects participated in the study. Subjects were not hypertensive, pregnant or breastfeeding. Three formulations were used: Formula A: 0.1% topical oxymetazoline hydrochloride solution; Formula B: 0.2% topical oxymetazoline hydrochloride solution; Formula C: 0.5% topical oxymetazoline hydrochloride solution.
The study was conducted over 3 days. On day 1, subjects were instructed to apply Formula A to both areolas. On day 2, subjects were instructed to apply Formula B to both areolas. On day 3, subjects were instructed to apply Formula C to both areolas. 0.1 mL of each formula was applied using a metered dosage dispenser to each areola. […] With the 0.5% topical oxymetazoline solution, response in nipple erection and sensitivity was obtained approximately within 1 hour and lasted over 8 hours.

| SMILES | Nipple Erection (Yes/No) [1] | Nipple Sensitivity (Yes/No) [1] | Nipple Sensitivity Effect Duration [1] [min] | Onset Time [1] [min] | duration of response [2] | time to response in nipple erection and sensitivity [2] [h] |
| --- | --- | --- | --- | --- | --- | --- |
| CC(C[N+](C)(C)C)OC(N)=O (stereo not shown) [Bethanechol] | Yes | Yes | <10 | <10 |  |  |
| CN1[C@@H](CC(=O)c2ccccc2)CCC[C@H]1C[C@H](O)c1ccccc1 [Alpha-Lobeline] | Yes | Yes | <10 | <10 |  |  |
| CC(=O)OC(C)C[N+](C)(C)C.[Cl-] (stereo not shown) [Mecholyl] | Yes | Yes | <10 | <10 |  |  |
| CC(=O)OC(C)C[N+](C)(C)C (stereo not shown) [Methacholine] | Yes | Yes | <10 | <10 |  |  |
| CN1CCCC1c1cccnc1 (stereo not shown) [Nicotine] | Yes | Yes | <10 | <10 |  |  |
| CC1OC2(CS1)CN1CCC2CC1 (stereo not shown) [Cevimeline] | Yes | Yes | <10 | <10 |  |  |
| Cc1cc(C(C)(C)C)c(O)c(C)c1CC1=NCCN1 [oxymetazoline, oxymetazoline hydrochloride] |  |  |  |  | over 8 hours | ≤ 1 |
| C[N+](C)(C)CCOC(N)=O [Carbachol] | Yes | Yes | <10 | <10 |  |  |
| CC(=O)OCC[N+](C)(C)C [Acetylcholine] |  |  | <5 | <10 |  |  |
| CC[C@@H]1C(=O)OC[C@@H]1Cc1cncn1C [Pilocarpine] | Yes | Yes | <5 | <10 |  |  |
| CCN(CC)CCNC(=O)c1cc(Cl)c(N)cc1OC [Metaclopramide] | Yes | Yes | <10 | <10 |  |  |
